Test results reported in patent US20110091387A1, “METHODS AND COMPOSITIONS FOR REDUCING SKIN DAMAGE” (THE GENERAL HOSPITAL CORPORATION, priority 2007, published 2011).

How the values were obtained:
RhoE promoter = RhoE promoter luc2 luciferase reporter screen for inducers of RhoE expression; format: cell-based; details: luminescence at 24 hours
Procedure: To isolate compounds that can activate RhoE pathway in keratinocytes and protect against UVB exposure, a robust and sensitive chemical genetics approach was developed for the identification of small molecules that induce RhoE expression. Briefly, a reporter construct was created that included the RhoE promoter operatively linked to the luc2 luciferase reporter gene (FIG. 1A). Stable cell lines were produced that expressed the reporter construct, and the cells were plated in 384 well plates at ˜10,000 cells per well. The library test compounds were added to the plated cells at two replicates per compound, and the cells were incubated with the compounds for 24 hours. Luminescence was measured at 24 hours using a plate reader. The data were analyzed using Spotfire.

RhoE = experiment: Western blot of RhoE and p53 expression after kaempferol treatment; format: cell-based; details: FIG. 3; relative to p53 expression
Source text: FIG. 3 is a Western blot depicting RhoE and p53 expression following treatment with the indicated amounts of kaempferol.

[1] = test system: HaCaT human keratinocyte cells; experiment: UVB-induced cell death in HaCaT keratinocytes; format: cell-based; details: 1 and 2.5 μM; UVB 30 mJ/cm^2; 24 hours later; FIG. 4
Procedure: To determine whether RhoE inducing compounds have the protective effect on the UVB damage-mediated cell death, kaempferol-treated (1 and 2.5 μM) HaCaT human keratinocyte cells were exposed to UVB (30 mJ/cm^2), and 24 hours later cell death rate was examined (FIG. 4).

UVB damaged mouse skin = UVB damaged mouse skin treated topically (TUNEL, CPD, phospho-H2AX, RhoE staining); format: in vivo
Procedure: Next, it was investigated whether kaempferol has any protective effect and or DNA repair potential on UVB damaged mouse skin. The dorsal hair of 8-week-old, C57BL/6 mice was trimmed and fine hair was removed by application of a hair-remover, 2 days before UVB exposure. Restrained mice were UVB irradiated at 120 mJ/cm^2 and treated with 0.5 mM kaempferol in 50 μl DMSO or DMSO control. The skin was removed from euthanized mice at various times after UVB exposure, fixed immediately in 4% neutral buffered paraformaldehyde, embedded in OCT, and sectioned at 8-μm thickness. Apoptotic cells were detected in skin sections harvested 16 hours after exposure to UVB, by the terminal nucleotidyl transferase-mediated nick end labeling (TUNEL) assay (Roche Applied Science, Germany) according to the manufacturer's instructions. […] The levels of an activated form of H2AX (Ser139) that is known to be activated and bound at the sites of DNA damage in response to UVB damage were also measured by staining with Anti-Phospho-H2AX (Ser139) antibodies (Upstate Cell Signaling Solutions, New York).

Structure (SMILES): O=c1c(O)c(-c2ccc(O)cc2)oc2cc(O)cc(O)c12 [Kaempferol]
- Composite Z value (induction of RhoE expression) (RhoE promoter; Table 1, two replicates per compound): 6.2959
- Composite Z (RhoE promoter; Table 2, two replicates): 6.2959
- RhoE expression (Western blot) (RhoE): able to activate RhoE expression in a p53-independent manner
- UVB-induced cell death rate [1]: suppression of UVB-induced cell death
- Apoptosis in epidermis (TUNEL) (UVB damaged mouse skin; 0.5 mM in 50 μl DMSO, UVB 120 mJ/cm^2, 16 hours after exposure, vs DMSO, FIG. 5): inhibited apoptosis induced by UVB damage in epidermis
- Cyclobutane pyrimidine dimer (CPD) formation in epidermis (TDM-2 staining) (UVB damaged mouse skin; 0.5 mM, UVB 120 mJ/cm^2, FIGS. 6A-6C): suppressed pyrimidine dimmer formation
- Levels of activated form of H2AX (Ser139) in skin (UVB damaged mouse skin; 0.5 mM, UVB 120 mJ/cm^2, FIGS. 7A-7C): significantly decreased
- RhoE expression in suprabasal area of epidermis (UVB damaged mouse skin; 0.5 mM, UVB exposure, FIG. 8): enhanced
